Columns and labels:
[1] = system: T cells; assay: T cell differentiation phenotyping (Tscm, Tcm, Tem) with 2-DG; format: cell-based, human
Protocol: Tscm, Tcm, Tem, and Tte subsets were analyzed by immunophenotyping based on their expression of CD45RA, CD45RO, CD95, and CCR7.
2-DG was added to culture medium between Days 0 and 7 and the feed medi was replaced with non-2-DG media (Media 1) from Days 7-14. […] The T cells continued differentiation after 2-DG was perfused out from culture media and ended at a similar level of differentiation as T cells in non-2-DG media (Media 1).
(§1) T2 cells expressing Luciferase were pulsed with the peptide recognized by the engineered TCR or with DMSO for 4 hours and the cells were washed before setting up a co-culture assay with 20,000 total T cells at a 1:1 (E:T) ratio. (A) 48 hours later, the luciferase signal was measured using the Steady Glo® Luciferase Assay System (Promega). Specific cytotoxicity was measured relative to the no peptide T2 cells cultured with the TCR T cells. (B) IFN-γ expression was measured using the AlphaLISA® detection kit (Perkin Elmer Waltham, MA) after 24 hours of co-culture. […] In addition, 24 hour accumulated release of IFN-γ was higher for T cells in non-2-DG media cross all concentration of peptide tested. […] Culture media containing 2-DG was used throughout the entire process (10 days).

[2] = system: T cells; assay: Transgene expression of cells expanded in media with 2-DG; format: cell-based, human
Protocol: On Day 1, the nucleated cells in each bag were counted and the amount of a lentiviral vector (comprising a polynucleotide encoding a TCR) corresponding to a MOI of 1 functional titer was diluted in 10 ml of Media 1 or Media 2 and placed in transfer bags. The transfer bags were sterile welded on XURI® Cellbag feed-lines and the lentivirus was then transferred into each of the bioreactors via gravity flow. The cells were incubated at 37° C., 5% CO2, gas flow rate of 0.1 L/min, and a rocking rate of 2 rpm at a 2° angle, for 20-24 hours.
In contrast, transgene expression of T cell in non-2-DG media decreased to 44.4% at high cell density ([…]).

[3] = system: apheresed donor cells; assay: Growth and viability of cells expanded in media supplemented with 2-DG; format: cell-based, human
Protocol: A portion of the washed apheresed donor cells comprising 1.2E9 nucleated cells were transferred into two transfer bags under the Dilute program using Sepax C-Pro processing system with the same CS-600.1 Kit (a new kit was not used). Into one bag was added about 8 ml of Media 1 (OpTmizer™ complete media containing 300 IU/mL rhIL-2 (ThermoFisher) and 2 mM 2-Deoxy-D-glucose (2-DG) (MilliporeSigma, Burlington, MA)). Into the second bag was added about 8 ml of Media 2 (OpTmizer™ complete media containing 300 IU/mL rhIL-2 (ThermoFisher)). To each was added 7.5 ml Immunocult™ anti-CD3/CD28/[…] (25 μl/ml media with cells, Stemcell Technologies). The amount of activator was determined based on the culture volume of 300 ml that was used in the culture/activation step below. The bags were incubated for 1 hour at room temperature to allow for saturation of antibody binding.
A 2 L XURI® SP Perf Cellbag bioreactor (GE Healthcare) was connected to a XURI® Cell Expansion System W25 and 300 ml Media 1 was added and allowed to equilibrate at 37° C., 5% CO2, gas flow rate of 0.1 L/min, and a rocking rate of 6 rpm at a 6° angle. […]
On Day 1, the nucleated cells in each bag were counted and the amount of a lentiviral vector (comprising a polynucleotide encoding a TCR) corresponding to a MOI of 1 functional titer was diluted in 10 ml of Media 1 or Media 2 and placed in transfer bags. […]
On Day 2, about half the volume of the culture media in each bioreactor bag was exchanged using three 50 ml bag washouts through feed-line and waste-line. Cell counts were taken daily and viable cell density (VCD), viability, dissolved oxygen, metabolites were determined as described above. Cell phenotypes were determined for all samples tested. […]
Total viable cell density, viability, glucose and lactate measurements were taken each day. Phenotyping was determined on Days 3, 5 and 7. […]
Total viable cell density, viability, glucose and lactate measurements were taken each day. Phenotyping was determined on Days 9 and 14.

[4] = system: T2 cells; assay: IFN-γ expression after co-culture with T2 cells (AlphaLISA); format: cell-based; conditions: 24 hours co-culture, all peptide concentrations tested
Protocol: as §1

[5] = system: T2 cells; assay: Potency assay: cytotoxicity against peptide-pulsed T2 cells expressing Luciferase; format: cell-based; conditions: peptide 1 μM, E:T 1:1, 48 hours
Protocol: as §1

[6] = system: T cells; assay: Leukocyte subsets in harvested T cells by immunophenotyping; format: cell-based, human; conditions: at harvest, both conditions
Protocol: Analysis of human B cells (CD19), monocytes (CD14), NK cells (CD56/16), NKT cells (CD3+CD56+), and T cells (CD3+Cd56−) were performed by immunophenotyping.

[7] = system: glycolysis; assay: Glucose and lactate concentrations in culture (Cedex Bio Analyzer); format: cell-based, human
Protocol: Glucose and lactate were measured using Cedex Bio Analyzer (Roche, Indianapolis, IN). […] In addition, the effect of 2-DG was reversible as restoration of glucose (A) and lactate (B) levels was found after removal of 2-DG from the media from Day 7 to 14.

[8] = system: T cells; assay: CD25 expression by cells expanded in media with 2-DG; format: cell-based, human
From the text: Even through CD25 expression by T cells in both conditions saturated at ±80%. T cells in 2-DG media retained CD25 better at Days[…] and 9 than the cells in the non-2-DG media. This may be due to the higher transgene expression and T cell yield for T cells generated in the 2-DG media.

O=CC[C@@H](O)[C@H](O)[C@H](O)CO [2-DG, 2-deoxy-D-glucose]
collected Tscm and Tcm subsets ([1]; 2-DG throughout entire process (10 days), non-2-DG media 43%): 59% | Tscm subset ([1]; Day 5, non-2-DG media 14%): 26% | combined Tcm and Tscm ([1]; Day 7, non-2-DG media 56%): 86% | Transgene expression by T cells ([2]; 2-DG media, non-2-DG media 54%): 56% | Transgene expression at high cell density ([2]; cell density 35 billion cells/ml, non-2-DG media 44.4% at 25 billion cells/ml): 50.4% | T cells yielded ([3]; 2 mM 2-DG media, 14 days, without 2-DG 25 billion): 35 billion T cells | Viability compared with non-2-DG media ([3]; Day 4 to Day 10): slightly higher viability | Overall viability ([3]; both media conditions): above 70% | 24 hour accumulated release of IFN-γ versus non-2-DG media [4]: lower level of IFN-γ | T2 cell lysis versus T cells from non-2-DG media [5]: No significant difference | CD3+ cell purity [6]: above 98% | Glucose concentration in spent media compared to non-2-DG condition ([7]; 2-DG media (Media 1)): higher glucose concentration | Lactate concentration in spent media compared to non-2-DG condition ([7]; 2-DG media (Media 1)): higher lactate concentration | Effect on glucose and lactate levels after removal of 2-DG ([7]; 2-DG removed from media Day 7 to 14): reversible | CD25 expression in response to activation ([8]; 2-DG media, non-2-DG media 46%): 32% | CD25 expression at saturation ([8]; both conditions): ~80%

From patent US12378521B2, “Method for enhancing production of genetically engineered autologous T cells” (AMGEN INC., priority 2020, dated 2025)
